In US9102637B2, “Bicyclic thiazole compounds” (CARNA BIOSCIENCES INC., priority 2013, dated 2015):

target: human TNIK (N-terminal segment, TNIK_N, residues 1-314) (Homo sapiens (Human), UniProt Q9UKE5); assay: TNIK kinase assay (mobility shift); format: biochemical; details: TNIK_N kinase activity, 25 μM ATP, 1 h at room temperature
Text: Preparation of Recombinant Human TNIK (N-Terminal Segment):
A cDNA encoding the N-terminal segment (TNIK_N, residues 1-314) containing the kinase domain of human TNIK (NM_015028.1) was amplified from cDNA mixture synthesized from human tissue (Biochain) by PCR using the following primers.
The cDNA was subcloned into baculovirus transfer vector pFastBac_GSTb that includes protease cleavage site and glutathione S-transferase purification tag (GST-tag). The plasmid was purified and the insertion of the pFastBac_GSTb-TNIK_N was confirmed by DNA sequencing. Then E. coli DH10Bac competent cells were transformed with the plasmid to prepare the recombinant bacmid according to the instructions for the Bac-to-Bac™ baculovirus expression systems (Invitrogen). The Sf9 cells were transfected with the recombinant bacmid containing pFastBac_GSTb-TNIK_N using Cellfectin Reagent (Invitrogen) in SF-9001I serum free media (Invitrogen). The viral supernatant was collected from the medium 72 h after transfection. The virus was amplified three times by infecting actively growing Sf9 or Sf21 cells in Grace's insect media (Invitrogen) supplemented with 10% FCS and an antibiotic-antimycotic reagent (Invitrogen) for 72 h at 27° C. in T-flask or roller bottles. The titer of amplified TNIK_N virus was estimated at 2.36×10^8 pfu/ml by using BacPAK™ Baculovirus Rapid Titer kit (Clontech).
Log-phase Sf21 cells (2×10^6 cells/ml) in the Grace's insect media were infected with the recombinant baculovirus at MOI of 3.0 and incubated in roller bottles (250 ml media per bottle) for 72 h at 27° C., after which, the cells were collected by centrifugation, and the cell pellet washed with cold PBS and kept at −80° C. until purification. The following purification procedures were carried out at 4° C. The frozen cells were thawed on ice and lysed in lysis buffer (50 mM Tris-HCl, pH 7.5, 150 mM NaCl, 1% Nonidet P-40, 5 mM DTT, 0.5 mM EDTA, 0.5 mM EGTA) supplemented with 1 mM phenylmethansulfonylfluoride, 2 μg/ml leupeptin, 2 μg/ml aprotinin, 1 mM NaF, 100 μM sodium orthovanadate, and 1 μM cantharidin by sonication. The suspended lysate was cleared by centrifugation at 9000g for 20 min and the supernatant was incubated for 1 h with glutathione Sepharose beads (GE Healthcare). The beads were suspended in buffer-H (50 mM Tris-HCl, pH 7.5, 1 M NaCl, 1 mM DTT, 0.5 mM EDTA, 0.5 mM EGTA and 0.05% Brij35) and washed with buffer-H followed by buffer-L (50 mM Tris-HCl, pH 7.5, 150 mM NaCl, 1 mM DTT, 0.5 mM EDTA, 0.5 mM EGTA, 0.05% Brij35) in an Econo-pack column (BIO-RAD). The bound TNIK_N was eluted with elution buffer (50 mM Tris-HCl, pH 8.0, 150 mM NaCl, 1 mM DTT, 10% glycerol, 0.5 mM EDTA, 0.5 mM EGTA and 5 mM reduced glutathione). The eluted fractions were collected and determined the protein concentration by Bradford reagent (BIO-RAD). The TNIKN fractions were pooled and desalted using 10DG column (BIORAD) equilibrated with the storage buffer (50 mM Tris-HCl, pH 7.5, 150 mM NaCl, 1 mM DTT, 10% glycerol, 0.05% Brij35). The purified TNIKN was characterized by electrophoresis using 4-20% polyacrylamide gels and matrix-assisted laser desorption/ionization reflection time-of-flight (MALDI-TOF) mass spectrometry on a Voyager-DE RP MALDI/TOF (Applied Biosystems). TNIK_N was confirmed by the molecular weight and. MASCOT Peptide Mass Fingerprint.
The kinase assays were conducted in a 20 μl volume using 384-well plates (Greiner). The reaction mixture consists of compound or vehicle (1% DMSO), 0.08 ng/μl TNIK_N, 1 μM FITC-labeled substrate peptides, including E-aminocaproic acid and 7 amino acids (described as SEQ ID NO.3 in “Kinase assay of TEST EXAMPLE 1” of WO 2010/064111(P.31)), 20 mM Hepes, pH 7.5, 0.01% Triton X-100, 5 mM MgCl2, 25 μM ATP and 2 mM DTT. As blank, TNIK N was excluded from the reaction mixture of vehicle (1% DMSO). […]

Chain of human TNIK (N-terminal segment, TNIK_N, residues 1-314) (Q9UKE5 1-314): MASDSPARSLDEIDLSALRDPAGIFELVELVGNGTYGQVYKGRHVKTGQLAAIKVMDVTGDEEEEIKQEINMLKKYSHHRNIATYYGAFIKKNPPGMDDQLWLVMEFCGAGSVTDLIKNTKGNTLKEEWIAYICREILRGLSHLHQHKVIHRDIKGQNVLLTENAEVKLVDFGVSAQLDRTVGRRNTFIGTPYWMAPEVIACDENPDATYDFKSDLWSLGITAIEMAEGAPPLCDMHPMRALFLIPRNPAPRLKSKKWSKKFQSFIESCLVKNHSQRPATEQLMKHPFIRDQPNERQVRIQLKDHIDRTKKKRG

Compound	IC50 [nM]
NC(=O)c1nc(Nc2ccc3ccccc3c2)sc1NC(=O)c1ccc(Cn2cnc(CO)c2)cc1 [Example 246, 5-{4-[(4-(hydroxymethyl)-1H-imidazol-1-yl)methyl]benzamido}-2-(naphthalen-2-ylamino)thiazole-4-carboxamide]	3.5
COc1ccc2cc(Nc3nc(C(N)=O)c(NC(=O)c4ccc(Cn5ccnc5)cc4)s3)ccc2c1 [Example 248, 5-{4-[(1H-imidazol-1-yl)methyl]benzamido}-2-[(6-methoxynaphthalen-2-yl)amino]thiazole-4-carboxamide]	6.1
NC(=O)c1nc(Nc2ccc3cc(F)ccc3c2)sc1NC(=O)c1ccc(Cn2ccnc2)cc1 [Example 249, 5-{4-[(1H-imidazol-1-yl)methyl]benzamido}-2-[(6-fluoronaphthalen-2-yl)amino]thiazole-4-carbox-amide]	10.1
NC(=O)c1nc(Nc2ccc3ncccc3c2)sc1NC(=O)c1ccc(Cn2ccnc2)cc1 [Example 250, 5-{4-[(1H-imidazol-1-yl)methyl]benzamido}-2-(quinolin-6-ylamino)thiazole-4-carboxamide]	3
NC(=O)c1nc(Nc2ccc3ccccc3c2)sc1NC(=O)c1ccc(Cn2ccnc2)s1 [Example 251, 5-{5-[(1H-imidazol-1-yl)methyl]thiophene-2-carboxamido}-2-(naphthalen-2-ylamino)thiazole-4-carboxamide]	7.7
NC(=O)c1nc(Nc2ccc3ccccc3c2)sc1NC(=O)c1ccc(CN2C(=O)CSC2=O)cc1 [Example 252, 5-{4-[(2,4-dioxothiazolidin-3-yl)methyl]benzamido}-2-(naphthalen-2-ylamino)thiazole-4-carbox-amide]	15.9
NC(=O)c1nc(Nc2cccc3ncccc23)sc1NC(=O)c1ccc(Cn2ccnc2)cc1 [Example 254, 5-{4-[(1H-imidazol-1-yl)methyl]benzamido}-2-(quinolin-5-ylamino)thiazole-4-carboxamide]	4.8
NC(=O)c1nc(Nc2ccnc3ccccc23)sc1NC(=O)c1ccc(Cn2ccnc2)cc1 [Example 255, 5-{4-[(1H-imidazol-1-yl)methyl]benzamido}-2-(quinolin-4-ylamino)thiazole-4-carboxamide]	26.5
Cc1noc(Cc2ccc(C(=O)Nc3sc(Nc4ccc5ccccc5c4)nc3C(N)=O)cc2)n1 [Example 256, 5-{4-[(3-methyl-1,2,4-oxadiazol-5-yl)methyl]benzamido}-2-(naphthalen-2-ylamino)thiazole-4-carboxamide]	18.5
Cc1nnc(Cc2ccc(C(=O)Nc3sc(Nc4ccc5ccccc5c4)nc3C(N)=O)cc2)o1 [Example 257, 5-{4-[(5-methyl-1,3,4-oxadiazol-2-yl)methyl]benzamido}-2-(naphthalen-2-ylamino)thiazole-4-carboxamide]	6.2
NC(=O)c1nc(Nc2ccc3ccccc3c2)sc1NC(=O)c1csc(Cn2ccnc2)c1 [Example 258, 5-{5-[(1H-imidazol-1-yl)methyl]thiophene-3-carboxamido}-2-(naphthalen-2-ylamino)thiazole-4-carboxamide]	8.7
NC(=O)c1nc(Nc2cccc3cccnc23)sc1NC(=O)c1ccc(Cn2ccnc2)cc1 [Example 259, 5-{4-[(1H-imidazol-1-yl)methyl]benzamido}-2-(quinolin-8-ylamino)thiazole-4-carboxamide]	5.5
NC(=O)c1nc(Nc2ccc3ccccc3c2)sc1NC(=O)c1ccc(Cn2cc(CO)nn2)cc1 [Example 260, 5-{4-[(4-(hydroxymethyl)-1H-1,2,3-triazol-1-yl)methyl]benzamido}-2-(naphthalen-2-ylamino) thiazole-4-carboxamide]	5.3
NC(=O)c1nc(Nc2ccc3ccc(F)cc3c2)sc1NC(=O)c1ccc(Cn2ccnc2)cc1 [Example 262, 5-{4-[(1H-imidazol-1-yl)methyl]benzamido}-2-[(7-fluoronaphthalen-2-yl)amino]thiazole-4-carbox-amide]	8.4
